Reference: ChEMBL document CHEMBL1201862, “PubChem BioAssay data set” (2004)
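In this assay, cells in 96-well plates receive the compound at five concentrations for 48 hours. Endpoints are linearly interpolated between the surrounding concentrations. Abbreviation: GI50, concentration required for 50% inhibition of growth.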 The source made the active and inactive calls. No stated cut-off is given here; in the data, active = GI50 up to about 1.1 µM and inactive = higher.

What was measured:
Assay in all cases: NCI-60 cell line screen, 48 h
786-0 = tested on: 786-0
A549 = tested on: A549
CAKI-1 = tested on: CAKI-1
CCRF-CEM = tested on: CCRF-CEM
IGROV-1 = tested on: IGROV-1
K562 = tested on: K562
KM12 = tested on: KM12
M14 = tested on: M14
NCI-H23 = tested on: NCI-H23
RPMI-8226 = tested on: RPMI-8226
RXF 393 = tested on: RXF 393
SF-268 = tested on: SF-268
SF-295 = tested on: SF-295
SK-OV-3 = tested on: SK-OV-3
SNB-19 = tested on: SNB-19
SNB-75 = tested on: SNB-75
U-251 = tested on: U-251
UACC-257 = tested on: UACC-257
HT-29 = tested on: HT-29
NCI-H226 = tested on: NCI-H226

Measured: GI50

O=c1ccc(=O)c2c(=O)c3ccccc3c(=O)c1=2
inactive: 786-0 39.7 µM | A549 37.4 µM | CAKI-1 50 µM | CCRF-CEM 33 µM | IGROV-1 > 100 µM | K562 > 100 µM | KM12 37.1 µM | M14 46 µM | NCI-H23 70.3 µM | RPMI-8226 27.5 µM | RXF 393 48.3 µM | SF-268 35.6 µM | SF-295 34.4 µM | SK-OV-3 > 100 µM | SNB-19 41.3 µM | SNB-75 > 100 µM | U-251 43.6 µM | UACC-257 30.8 µM

O=C(NNC(=O)c1ccncc1)c1ccncc1
inactive: 786-0 > 100 µM | A549 > 100 µM | CAKI-1 > 100 µM | CCRF-CEM > 100 µM | HT-29 > 100 µM | IGROV-1 > 100 µM | K562 > 100 µM | KM12 > 100 µM | M14 > 100 µM | NCI-H23 > 100 µM | RPMI-8226 > 100 µM | RXF 393 > 100 µM | SF-268 > 100 µM | SF-295 > 100 µM | SK-OV-3 > 100 µM | SNB-19 > 100 µM | SNB-75 > 100 µM | U-251 > 100 µM | UACC-257 > 100 µM

O=[N+]([O-])c1nccn1COCCF
inactive: 786-0 > 100 µM | A549 > 100 µM | CAKI-1 > 100 µM | CCRF-CEM > 100 µM | HT-29 > 100 µM | IGROV-1 > 100 µM | K562 > 100 µM | KM12 > 100 µM | M14 > 100 µM | NCI-H226 > 100 µM | NCI-H23 > 100 µM | RPMI-8226 > 100 µM | SF-268 > 100 µM | SF-295 > 100 µM | SK-OV-3 > 100 µM | SNB-19 > 100 µM | SNB-75 64.6 µM | U-251 > 100 µM | UACC-257 > 100 µM

COC(=O)c1cc(/C=C/C(=O)Cc2ccccc2)cn1S(=O)(=O)c1ccccc1
inactive: 786-0 > 100 µM | A549 > 100 µM | CAKI-1 > 100 µM | CCRF-CEM > 100 µM | HT-29 > 100 µM | IGROV-1 > 100 µM | K562 > 100 µM | KM12 > 100 µM | M14 > 100 µM | NCI-H23 > 100 µM | RXF 393 > 100 µM | SF-268 > 100 µM | SF-295 > 100 µM | SK-OV-3 > 100 µM | SNB-19 > 100 µM | SNB-75 > 100 µM | UACC-257 > 100 µM

O=C(O)C1c2ccccc2C(C(=O)O)c2ccccc21 (stereo unspecified)
inactive: 786-0 > 100 µM | A549 > 100 µM | CAKI-1 > 100 µM | CCRF-CEM > 100 µM | HT-29 > 100 µM | IGROV-1 > 100 µM | K562 > 100 µM | KM12 > 100 µM | M14 > 100 µM | RPMI-8226 > 100 µM | RXF 393 > 100 µM | SF-268 > 100 µM | SF-295 > 100 µM | SK-OV-3 > 100 µM | SNB-19 > 100 µM | SNB-75 > 100 µM | U-251 > 100 µM | UACC-257 > 100 µM

CC1=CC2CC(C)C1(C)CCc1ccoc12 (stereo unspecified)
inactive: 786-0 > 100 µM | A549 > 100 µM | CAKI-1 > 100 µM | CCRF-CEM > 100 µM | HT-29 > 100 µM | IGROV-1 > 100 µM | K562 > 100 µM | KM12 > 100 µM | M14 > 100 µM | NCI-H23 > 100 µM | RPMI-8226 > 100 µM | RXF 393 > 100 µM | SF-268 > 100 µM | SF-295 > 100 µM | SK-OV-3 > 100 µM | SNB-19 > 100 µM | SNB-75 > 100 µM | U-251 > 100 µM | UACC-257 > 100 µM

CC(C)(C)/N=C/N1C=Cc2nc3ccccc3cc2C1
inactive: 786-0 > 100 µM | A549 > 100 µM | CAKI-1 > 100 µM | CCRF-CEM > 100 µM | HT-29 > 100 µM | IGROV-1 > 100 µM | K562 > 100 µM | KM12 > 100 µM | M14 > 100 µM | NCI-H23 > 100 µM | RXF 393 > 100 µM | SF-268 > 100 µM | SF-295 > 100 µM | SK-OV-3 > 100 µM | SNB-19 > 100 µM | SNB-75 > 100 µM | U-251 > 100 µM | UACC-257 > 100 µM

C[C@@H]1S[C@H](c2c(Cl)cccc2Cl)N2Cc3ccccc3N=C12
inactive: 786-0 > 100 µM | A549 > 100 µM | CAKI-1 > 100 µM | CCRF-CEM > 100 µM | IGROV-1 > 100 µM | K562 > 100 µM | KM12 85.5 µM | M14 > 100 µM | NCI-H23 > 100 µM | RPMI-8226 > 100 µM | RXF 393 > 100 µM | SF-268 > 100 µM | SF-295 > 100 µM | SK-OV-3 > 100 µM | SNB-19 > 100 µM | SNB-75 > 100 µM | U-251 > 100 µM | UACC-257 > 100 µM

Cc1ccc([S+]([O-])c2sccc2C=O)cc1 (stereo unspecified)
inactive: 786-0 32.1 µM | A549 > 100 µM | CAKI-1 > 100 µM | CCRF-CEM 20 µM | HT-29 19.8 µM | IGROV-1 22.6 µM | K562 48.6 µM | KM12 27.7 µM | M14 20 µM | NCI-H23 30.8 µM | RPMI-8226 31 µM | RXF 393 56.9 µM | SF-268 28.8 µM | SF-295 23.7 µM | SK-OV-3 > 100 µM | SNB-19 > 100 µM | SNB-75 33.9 µM | U-251 18.9 µM | UACC-257 53.5 µM

CO/C(=C/C(=O)C(Cl)(Cl)Cl)CC/C(=C\C(=O)C(Cl)(Cl)Cl)OC
inactive: 786-0 22.3 µM | A549 47.4 µM | CAKI-1 24.9 µM | CCRF-CEM 24.3 µM | HT-29 25 µM | IGROV-1 16.3 µM | K562 25.8 µM | KM12 27.7 µM | M14 28.2 µM | NCI-H23 22.4 µM | RPMI-8226 22.3 µM | RXF 393 17.5 µM | SF-268 26.1 µM | SF-295 36.3 µM | SK-OV-3 30.4 µM | SNB-19 45.8 µM | SNB-75 40.6 µM | U-251 22.8 µM | UACC-257 19.2 µM

COC1C(=O)CCC2(CO2)C1(O)C1(C)OC1CC=C(C)C (stereo unspecified)
inactive: 786-0 32.4 µM | A549 10.6 µM | CAKI-1 38.1 µM | HT-29 23.1 µM | IGROV-1 16.9 µM | K562 16.9 µM | KM12 16.2 µM | M14 11.1 µM | NCI-H23 46.7 µM | RXF 393 22.9 µM | SF-268 33.5 µM | SF-295 29.8 µM | SK-OV-3 51.6 µM | SNB-19 15 µM | SNB-75 69.8 µM | U-251 13.9 µM | UACC-257 23.2 µM
